Results: EP4682173A1, “METHOD FOR PRODUCING RADIOLABELED ANTIBODY, RADIOLABELED ANTIBODY, AND RADIOACTIVE MEDICINE” (Kagoshima University, priority 2023, dated 2024)

Test system: EGFR
Experiment: Test Example 7: antigen binding activity by in vitro ARG (^89Zr-labeled Pmab)
Design: species or system human
Settings: day after production

Substance: Comparative Example 3: ^89Zr-panitumumab conjugate (monovalent) by the CCAP method
- binding activity for EGFR: confirmed
